Measurements published in patent publication US20250115598A1 (Anaxis Pharma Pty Ltd, priority 2021, published 2025).

Assays:
human MLKL (full length) = human MLKL (full length) (Homo sapiens (Human), UniProt Q8NB16); test: KINOMEscan binding assay, human MLKL (full length); details: KINOMEscan, Table 21; read-out: Human MLKL (full-length) (KD)
Method in brief: (§1)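 Active-site competition binding: DNA-tagged kinase (T7 phage fusion from BL21-derived E. coli lysate, or HEK-293-expressed) captured on immobilized-ligand beads, with bound kinase in the eluate quantified by qPCR. Compounds ran as 11-point 3-fold dilutions, 1% DMSO, top 30,000 nM for most. Kd came from a Hill fit (slope −1).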

human RIPK3 = human RIPK3 (Homo sapiens (Human), UniProt Q9Y572); test: KINOMEscan binding assay, human RIPK3; details: Table 21
human RIPK3, sequence (Q9Y572 whole entry): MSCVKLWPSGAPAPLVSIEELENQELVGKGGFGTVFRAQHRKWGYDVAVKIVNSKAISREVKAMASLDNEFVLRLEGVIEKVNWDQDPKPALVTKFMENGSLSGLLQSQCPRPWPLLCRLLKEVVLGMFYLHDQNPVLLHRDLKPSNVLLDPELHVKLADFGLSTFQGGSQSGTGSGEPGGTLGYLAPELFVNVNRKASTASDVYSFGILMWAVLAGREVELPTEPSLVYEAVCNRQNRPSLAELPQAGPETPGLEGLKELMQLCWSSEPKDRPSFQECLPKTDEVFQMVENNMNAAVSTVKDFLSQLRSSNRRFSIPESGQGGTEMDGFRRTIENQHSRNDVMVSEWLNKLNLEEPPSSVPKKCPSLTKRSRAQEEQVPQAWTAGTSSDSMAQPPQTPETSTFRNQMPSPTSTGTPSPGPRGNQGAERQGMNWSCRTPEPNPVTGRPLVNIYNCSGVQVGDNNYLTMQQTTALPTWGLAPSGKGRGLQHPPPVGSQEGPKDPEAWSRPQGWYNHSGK
Method in brief: as §1

human RIPK1 = human RIPK1 (Homo sapiens (Human), UniProt Q13546); test: KINOMEscan binding assay, human RIPK1; details: Table 21
human RIPK1, sequence (Q13546 whole entry): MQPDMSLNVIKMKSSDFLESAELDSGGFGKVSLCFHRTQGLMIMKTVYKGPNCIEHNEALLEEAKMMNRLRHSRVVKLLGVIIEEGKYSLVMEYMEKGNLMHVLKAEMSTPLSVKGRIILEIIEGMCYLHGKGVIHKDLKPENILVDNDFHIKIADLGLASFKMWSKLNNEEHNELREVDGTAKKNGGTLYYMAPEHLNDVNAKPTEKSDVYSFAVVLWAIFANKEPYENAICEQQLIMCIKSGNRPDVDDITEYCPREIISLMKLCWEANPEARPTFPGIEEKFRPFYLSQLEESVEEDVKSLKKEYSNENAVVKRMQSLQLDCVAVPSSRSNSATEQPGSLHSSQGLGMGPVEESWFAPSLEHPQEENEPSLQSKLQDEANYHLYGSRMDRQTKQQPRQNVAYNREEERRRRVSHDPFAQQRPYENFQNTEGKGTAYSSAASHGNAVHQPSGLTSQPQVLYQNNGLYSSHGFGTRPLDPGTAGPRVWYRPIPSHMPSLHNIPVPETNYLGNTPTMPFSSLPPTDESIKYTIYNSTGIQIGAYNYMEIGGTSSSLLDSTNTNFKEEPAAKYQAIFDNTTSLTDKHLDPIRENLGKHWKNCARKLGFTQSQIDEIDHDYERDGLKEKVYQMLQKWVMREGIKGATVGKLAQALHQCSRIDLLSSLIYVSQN
Method in brief: as §1

human MLKL (full length), sequence (Q8NB16 whole entry, the tested form may be a part): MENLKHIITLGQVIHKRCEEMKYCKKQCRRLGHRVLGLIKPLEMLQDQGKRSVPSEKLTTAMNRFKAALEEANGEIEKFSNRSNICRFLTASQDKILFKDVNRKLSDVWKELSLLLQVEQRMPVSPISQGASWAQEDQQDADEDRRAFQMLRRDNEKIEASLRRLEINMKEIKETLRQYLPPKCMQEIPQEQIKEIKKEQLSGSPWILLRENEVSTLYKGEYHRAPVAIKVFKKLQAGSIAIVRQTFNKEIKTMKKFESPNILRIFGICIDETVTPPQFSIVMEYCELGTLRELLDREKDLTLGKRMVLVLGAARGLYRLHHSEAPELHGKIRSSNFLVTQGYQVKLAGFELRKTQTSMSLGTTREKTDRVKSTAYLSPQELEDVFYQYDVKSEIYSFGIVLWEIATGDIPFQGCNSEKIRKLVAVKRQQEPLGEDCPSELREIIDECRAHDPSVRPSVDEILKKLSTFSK

Kd (human MLKL (full length)) [µM] | Kd (human RIPK3) [µM] | Kd (human RIPK1) [µM] | SMILES
< 0.001 | > 10 | > 10 | C[C@H](Oc1cc(-c2nn(C)c3c(-c4cnn(C5CN(C)C5)c4)cnc(N)c23)ccc1NS(=O)(=O)C(F)F)c1ccc(F)cc1 [Compound 92, (S)-N-(4-(4-amino-1-methyl-7-(1-(1-methylazetidin-3-yl)-1H-pyrazol-4-yl)-1H-pyrazolo[4,3-c]pyridin-3-yl)-2-(1-(4-fluorophenyl)ethoxy)phenyl)-1,1-difluoromethanesulfonamide]
< 0.001 | > 10 | > 10 | C[C@H](Oc1cc(-c2nn(C)c3c(-c4cnn(C5CCN(C)C5)c4)cnc(N)c23)ccc1NS(=O)(=O)C(F)F)c1ccc(F)cc1 (stereo partly drawn) [Compound 93, N-(4-(4-amino-1-methyl-7-(1-(1-methylpyrrolidin-3-yl)-1H-pyrazol-4-yl)-1H-pyrazolo[4,3-c]pyridin-3-yl)-2-((S)-1-(4-fluorophenyl)ethoxy)phenyl)-1,1-difluoromethanesulfonamide]
< 0.001 | > 10 | > 10 | C[C@H](Oc1cc(-c2nn(C)c3c(-c4cnn(C5CNC5)c4)cnc(N)c23)ccc1NS(=O)(=O)C(F)F)c1ccc(F)cc1 [Compound 94, (S)-N-(4-(4-amino-7-(1-(azetidin-3-yl)-1H-pyrazol-4-yl)-1-methyl-1H-pyrazolo[4,3-c]pyridin-3-yl)-2-(1-(4-fluorophenyl)ethoxy)phenyl)-1,1-difluoromethane-sulfonamide]
< 0.001 | > 10 | > 10 | [2H]C([2H])([2H])N1CCC(n2cc(-c3cnc(N)c4c(-c5ccc(NS(=O)(=O)C(F)F)c(O[C@@H](C)c6ccc(F)cc6)c5)nn(C)c34)cn2)CC1 [Compound 103, (S)-N-(4-(4-amino-1-methyl-7-(1-(1-(methyl-d3)piperidin-4-yl)-1H-pyrazol-4-yl)-1H-pyrazolo[4,3-c]pyridin-3-yl)-2-(1-(4-fluorophenyl)ethoxy)phenyl)-1,1-difluoromethanesulfonamide]
< 0.001 | > 10 | > 10 | C[C@H](Oc1cc(-c2nn(C)c3c(-c4cnc(N5CCN(C)CC5)nc4)cnc(N)c23)ccc1NS(=O)(=O)C(F)F)c1ccc(F)cc1 [Compound 105, (S)-N-(4-(4-amino-1-methyl-7-(2-(4-methylpiperazin-1-yl)pyrimidin-5-yl)-1H-pyrazolo[4,3-c]pyridin-3-yl)-2-(1-(4-fluorophenyl)ethoxy)phenyl)-1,1-difluoromethanesulfonamide]
< 0.001 | > 10 | > 10 | C[C@H](Oc1cc(-c2nn(C)c3c(-c4cnc(N5CCOCC5)nc4)cnc(N)c23)ccc1NS(=O)(=O)C(F)F)c1ccc(F)cc1 [Compound 110, (S)-N-(4-(4-amino-1-methyl-7-(2-morpholinopyrimidin-5-yl)-1H-pyrazolo[4,3-c]pyridin-3-yl)-2-(1-(4-fluorophenyl)ethoxy)phenyl)-1,1-difluoromethanesulfonamide]
< 0.001 | > 10 | > 10 | C[C@H](Oc1cc(-c2nn(C)c3c(-c4cnn(C(F)F)c4)cnc(N)c23)ccc1NS(=O)(=O)C(F)F)c1ccc(F)cc1 [Compound 123, (S)-N-(4-(4-amino-7-(1-(difluoromethyl)-1H-pyrazol-4-yl)-1-methyl-1H-pyrazolo[4,3-c]pyridin-3-yl)-2-(1-(4-fluorophenyl)ethoxy)phenyl)-1,1-difluoromethanesulfonamide]

Further lines, the compound ahead of its results:

SMILES | Kd (human MLKL (full length)) [µM] | Kd (human RIPK3) [µM] | Kd (human RIPK1) [µM]
C[C@H](Oc1cc(-c2nn(C)c3c(-c4cnn(C5(CN)CC5)c4)cnc(N)c23)ccc1NS(=O)(=O)C(F)F)c1ccc(F)cc1 [Compound 89, (S)—N-(4-(4-amino-7-(1-(1-(aminomethyl)cyclopropyl)-1H-pyrazol-4-yl)-1-methyl-1H-pyrazolo[4,3-c]pyridin-3-yl)-2-(1-(4-fluorophenyl)ethoxy)phenyl)-1,1-difluoromethanesulfonamide] | < 0.001 | > 10 | > 10
C[C@H](Oc1cc(-c2nn(C)c3c(-c4cnn(C5(C#N)CC5)c4)cnc(N)c23)ccc1NS(=O)(=O)C(F)F)c1ccc(F)cc1 [Compound 96, N-(4-{4-amino-7-[1-(1-cyanocyclopropyl)-1H-pyrazol-4-yl]-1-methyl-1H-pyrazolo[4,3-c]pyridin-3-yl}-2-[(1S)-1-(4-fluorophenyl)ethoxy]phenyl)-1,1-difluoromethanesulfonamide] | < 0.001 | > 10 | > 10
C[C@H](Oc1cc(-c2nn(C)c3c(-c4cnn(C(C)(C)CO)c4)cnc(N)c23)ccc1NS(=O)(=O)C(F)F)c1ccc(F)cc1 [Compound 97, (S)-N-(4-(4-amino-7-(1-(1-hydroxy-2-methylpropan-2-yl)-1H-pyrazol-4-yl)-1-methyl-1H-pyrazolo[4,3-c]pyridin-3-yl)-2-(1-(4-fluorophenyl)ethoxy)phenyl)-1,1-difluoromethanesulfonamide] | < 0.001 | > 10 | > 10
C[C@H](Oc1cc(-c2nn(C)c3c(-c4cnn(C5(CC#N)COC5)c4)cnc(N)c23)ccc1NS(=O)(=O)C(F)F)c1ccc(F)cc1 [Compound 98, (S)-N-(4-(4-amino-7-(1-(3-(cyanomethyl)oxetan-3-yl)-1H-pyrazol-4-yl)-1-methyl-1H-pyrazolo[4,3-c]pyridin-3-yl)-2-(1-(4-fluorophenyl)ethoxy)phenyl)-1,1-difluoromethanesulfonamide] | < 0.001 | > 10 | > 10
C[C@H](Oc1cc(-c2nn(C)c3c(-c4cnn(CCN(C)C)c4)cnc(N)c23)ccc1NS(=O)(=O)C(F)F)c1ccc(F)cc1 [Compound 100, (S)-N-(4-(4-amino-7-(1-(2-(dimethylamino)ethyl)-1H-pyrazol-4-yl)-1-methyl-1H-pyrazolo[4,3-c]pyridin-3-yl)-2-(1-(4-fluorophenyl)ethoxy)phenyl)-1,1-difluoromethanesulfonamide] | < 0.001 | > 10 | > 10
CC(C)N(C)CC(C)n1cc(-c2cnc(N)c3c(-c4ccc(NS(=O)(=O)C(F)F)c(O[C@@H](C)c5ccc(F)cc5)c4)nn(C)c23)cn1 (stereo partly drawn) [Compound 101, N-(4-(4-amino-7-(1-(1-(isopropyl(methyl)amino)propan-2-yl)-1H-pyrazol-4-yl)-1-methyl-1H-pyrazolo[4,3-c]pyridin-3-yl)-2-((S)-1-(4-fluorophenyl)ethoxy)phenyl)-1,1-difluoromethanesulfonamide] | < 0.001 | > 10 | > 10
C[C@@H](Oc1cc(-c2nn(C)c3c(-c4cnn(C5CCOCC5)c4)cnc(N)c23)ccc1NS(=O)(=O)C(F)F)c1ccc(F)cc1 [Compound 121, (R)-N-(4-(4-amino-1-methyl-7-(1-(tetrahydro-2H-pyran-4-yl)-1H-pyrazol-4-yl)-1H-pyrazolo[4,3-c]pyridin-3-yl)-2-(1-(4-fluorophenyl)ethoxy)phenyl)-1,1-difluoromethane-sulfonamide] | < 0.001 | > 10 | > 10
C[C@H](Oc1cc(-c2nn(C)c3c(-c4cnn(C5CCOCC5)c4)cnc(N)c23)ccc1NS(=O)(=O)C(F)F)c1cccc(Cl)c1 [Compound 122] | < 0.001 | > 10 | > 10
